{"source": "patent US7361637B2", "about": "“Hypotensors” (Protein Express Co., Ltd., priority 2000, dated 2008)", "type_in_all_cases": "in vivo, rat", "key": {"[1]": {"system": "SHR male rats", "experiment": "Hypotensive effect: blood pressure by carotid cannula and pressure transducer after administration to SHR", "details": "for duration of the hypotensive effect from the administration / sustained hypotension at the highest: 1 mg/kg via cannula from external carotid artery", "description": "A group comprising three SHR male rats (12˜14 weeks age; body weight: 258˜310 g) that are pathological model animals of hypertension was used. Ab mix prepared in Example 1, P mix prepared in Example 2 and dissolved in a physiological saline, and anti-renin neutralizing antibody and captopril, which were the drugs used for comparative study, were intravenously administered at the dose of 0.44 mg/kg, 0.6 mg/kg, 0.12 mg/kg and 100 mg/kg, respectively. Measurement of blood pressure was carried out in such a manner that a cannula inserted into common carotid artery and external carotid artery was connected to a pressure transducer (P23XL; Gould Electronics) and introduced into a pressure processor signal conditioner (Gould Electronics), followed by carrying out measurement every ten minutes until 1 hour from administration of the test substance and every one hour thereafter and the data were recorded on a thermal array recorder (RS 3400; Gould Electronics). […]\nA test was carried out for p 1 (pf 1-11), p 2 (pf 5-19) and p 3 (pf 27-41) prepared in Example 2 in the same manner as in Experimental Example 1 using 2 or 4 cases of SHR. The result was that, in the case of administration of 2 mg/kg of p 1, a transient hypertensive action of around 6% was noted immediately after administration, that recovered after 5 minutes from administration, then a hypotensive gradually took place thereafter to an extent of 6% at the highest and a sustained effect was confirmed until 24th hour. […] In the case of administration of 2 mg/kg of p 2, a transient hypotension of around 35% was noted immediately after administration, it recovered at 5 minutes after administration and, after that, a sustained hypotensive action was confirmed until 24th hour to an extent of around 6% at the highest. […] In the case of administration of 10 mg/kg, a hypotension of 7% was noted after 2 hours and, until 24th hour, a sustained hypotensive action where 11% was the highest was confirmed. […]"}, "[2]": {"system": "SHR", "experiment": "Weight of heart and kidney after 14 days of administration to SHR", "details": "1.6 mg/kg intravenously once daily for 14 days", "description": "(§1) The p 1c (pf 5-11) prepared in Example 2 was intravenously administered once daily for consecutive 14 days at the dose of 1.6 mg/kg to a group comprising 4 SHRs. On the 14th day, the rats were killed by bleeding, followed by excising heart and kidney to measure their weights. The result is shown in Table 1 in terms of weight of the organ per 100 g of body weight."}, "[3]": {"system": "SHR", "experiment": "Weight of arteries after 14 days of administration to SHR", "details": "1.6 mg/kg intravenously once daily for 14 days", "description": "as §1, with “weight. […] Weight of each artery was calculated in terms of weight per each area, followed by further converting the calculated value into the value per body weight of each rat and the results were compared and shown in Table 2.” for “weight.”"}}, "note": "Values joined by “and” are separate entries in the source; they are usually repeats but may differ in a detail not shown here. Identical values can stand only once.", "data": [{"compound": "D-His-Pro-Phe-His-Leu-ψ-[CH2NH]-Leu-Val-Tyr [H 6137, reference compound]", "values": [{"measurement": "duration of the hypotensive effect from the administration", "setting": "[1]", "value": "tendency of disappearance of the effect"}, {"measurement": "sustained hypotension at the highest", "setting": "[1]; at 3~8 hours after administration", "value": 9, "unit": "%"}]}, {"compound": "p 1c: rat prorenin profragment peptide pf 5-11 (SEQ ID NO: 12) (TASFGRI; listed as Rattus norvegicus)", "values": [{"measurement": "sustained hypotension at the highest until 24th hour", "setting": "[1]; SHR, 10 mg/kg intravenously", "value": 16, "unit": "%"}, {"measurement": "transient hypertension immediately after administration", "setting": "[1]; SHR, 10 mg/kg intravenously", "value": 21, "unit": "%"}, {"measurement": "Weight of Organ, Heart, Mean Value", "setting": "[2]", "value": 0.39, "unit": "g/100 g body weight"}, {"measurement": "Weight of Organ, Left Kidney, Mean Value", "setting": "[2]", "value": 0.35, "unit": "g/100 g body weight"}, {"measurement": "Weight of Organ, Right Kidney, Mean Value", "setting": "[2]", "value": 0.34, "unit": "g/100 g body weight"}, {"measurement": "Weight of Organ, Heart, individual rats", "setting": "[2]; 1.6 mg/kg", "value": "0.37 g/100 g body weight and 0.4 g/100 g body weight (2×) and 0.39 g/100 g body weight"}, {"measurement": "Weight of Organ, Left Kidney, individual rats", "setting": "[2]; 1.6 mg/kg", "value": "0.34 g/100 g body weight and 0.35 g/100 g body weight (3×)"}, {"measurement": "Weight of Organ, Right Kidney, individual rats", "setting": "[2]; 1.6 mg/kg", "value": "0.34 g/100 g body weight and 0.35 g/100 g body weight (2×) and 0.33 g/100 g body weight"}, {"measurement": "effect on hypertrophy of heart and kidney", "setting": "[2]; compared with physiological saline", "value": "suppresses hypertrophy of heart and kidney"}, {"measurement": "Weight of Artery, Femoral Artery, Mean Value", "setting": "[3]", "value": 0.00089, "unit": "mg/mm^2/g body weight"}, {"measurement": "Weight of Artery, Pulmonary Artery, Mean Value", "setting": "[3]", "value": 0.00081, "unit": "mg/mm^2/g body weight"}, {"measurement": "Weight of Artery, Superior Mesenteric Artery, Mean Value", "setting": "[3]", "value": 0.00096, "unit": "mg/mm^2/g body weight"}, {"measurement": "Weight of Artery, Femoral Artery, individual rats", "setting": "[3]; 1.6 mg/kg", "value": "0.00068 mg/mm^2/g body weight and 0.00094 mg/mm^2/g body weight and 0.00106 mg/mm^2/g body weight and 0.00087 mg/mm^2/g body weight"}, {"measurement": "Weight of Artery, Pulmonary Artery, individual rats", "setting": "[3]; 1.6 mg/kg", "value": "0.00067 mg/mm^2/g body weight and 0.00087 mg/mm^2/g body weight and 0.00088 mg/mm^2/g body weight and 0.00082 mg/mm^2/g body weight"}, {"measurement": "Weight of Artery, Superior Mesenteric Artery, individual rats", "setting": "[3]; 1.6 mg/kg", "value": "0.00094 mg/mm^2/g body weight and 0.00095 mg/mm^2/g body weight and 0.00096 mg/mm^2/g body weight and 0.001 mg/mm^2/g body weight"}, {"measurement": "effect on thickening of artery (remodeling of blood vessel)", "setting": "[3]; compared with control group", "value": "suppresses the thickening of artery"}]}, {"compound": "p 1a: rat prorenin profragment peptide pf 1-4 (SEQ ID NO: 10) (LPTD; listed as Rattus norvegicus)", "values": [{"measurement": "sustained hypotension at the highest until 24th hour", "setting": "[1]; SHR, 10 mg/kg intravenously", "value": 13, "unit": "%"}, {"measurement": "transient hypertension immediately after administration", "setting": "[1]; SHR, 10 mg/kg intravenously", "value": 13, "unit": "%"}]}, {"compound": "p 1b: rat prorenin profragment peptide pf 1-7 (SEQ ID NO: 11) (LPTDTAS; listed as Rattus norvegicus)", "values": [{"measurement": "sustained hypotension at the highest until 24th hour", "setting": "[1]; SHR, 10 mg/kg intravenously", "value": 13, "unit": "%"}, {"measurement": "transient hypertension immediately after administration", "setting": "[1]; SHR, 10 mg/kg intravenously", "value": 17, "unit": "%"}]}, {"compound": "C[C@H](CS)C(=O)N1CCC[C@H]1C(=O)O", "note": "[captopril, reference compound]", "values": [{"measurement": "hypotensive action at the 24th hour (completion of the experiment)", "setting": "[1]; SHR, 100 mg/kg intravenously", "value": "no hypotensive action was noted"}, {"measurement": "maximum hypotension (at the highest) until the 6th hour from the administration", "setting": "[1]; SHR, 100 mg/kg intravenously", "value": 31, "unit": "%"}]}, {"compound": "p 2b: rat prorenin profragment peptide pf 11-15 (SEQ ID NO: 14) (ILLKK; listed as Rattus norvegicus)", "values": [{"measurement": "sustained hypotension at the highest until 24 hours", "setting": "[1]; SHR, 1 mg/kg intravenously", "value": "The same effect was achieved"}]}, {"compound": "p 2a: rat prorenin profragment peptide pf 12-19 (SEQ ID NO: 13) (LLKKMPSV; listed as Rattus norvegicus)", "values": [{"measurement": "duration of the hypotensive effect from the administration", "setting": "[1]", "value": "≥ 12", "unit": "h"}, {"measurement": "sustained hypotension at the highest", "setting": "[1]; at 5~8 hours after administration", "value": 11, "unit": "%"}, {"measurement": "sustained hypotension at the highest until 24 hours", "setting": "[1]; SHR, 1 mg/kg intravenously", "value": 14, "unit": "%"}, {"measurement": "transient hypertension immediately after administration", "setting": "[1]; SHR, 1 mg/kg intravenously", "value": 6, "unit": "%"}]}, {"compound": "p 1: rat prorenin profragment peptide pf 1-11 (SEQ ID NO: 9) (LPTDTASFGRI; listed as Rattus norvegicus)", "values": [{"measurement": "transient hypertension immediately after administration", "setting": "[1]; SHR, 2 mg/kg intravenously", "value": "around 6%"}, {"measurement": "sustained hypotension at the highest after recovery of the transient change", "setting": "[1]; SHR, 2 mg/kg intravenously, until 24th hour", "value": 6, "unit": "%"}, {"measurement": "hypotension at 6 hours after administration", "setting": "[1]; SHR, 10 mg/kg intravenously", "value": "about 7%"}]}]}
